Laboratory results taken from patent US7375246B2, “Sulfhydral containing compounds and methods of using the same” (Regenesis Bioremediation Products Inc., priority 2003, dated 2008).

Key:
[1] = Example C: reduction of As in arsenate solution in a flask, atomic absorption
Description: 10.02 grams of ferrous cysteinate synthesized as in 1.4 were added to a 250 ml. flask which contained 150 ml of 32 ppm of As initially added as arsenic trioxide. The 32-ppm solution of As was prepared by using 0.08 grams of arsenic trioxide to which 3.0 grams of concentrated hydrochloric acid was added. This prepared the soluble arsenate. The solution was heated and diluted to one liter with distilled water. The As concentration was measured over time using atomic absorption.

[2] = Example D: two-flask liquid/soil system with chromated copper arsenate, arsenic
Description: (§1) A system which had two connected 250 ml flasks, one with liquid and soil and the other with a reservoir of liquid, was used. The liquid flowed between the 2 flasks. Samples were taken from the flask without the soil to determine the amount of Cu, As and Cr present in the aqueous phase. The liquid in the flask without soil was sampled periodically and the Cu, Cr and As content measured by Atomic Absorption Spectroscopy. A unimolar ratio of copper chromate and copper arsenate was used as being representative of chromated copper arsenate. The level of contamination was selected so that the As component was about 30 mg/L. After the system was set up the As component was determined to be 28.3 mg/L. The Cu and Cr were approximately 25 mg/L and 15.5 mg/L, respectively.
(§2) Ferrous cysteinate and sorbitol tricysteinate were both used in this system.

[3] = Example D: two-flask liquid/soil system with chromated copper arsenate, chromium
Description: as §1, §2

[4] = Example D: two-flask liquid/soil system with chromated copper arsenate, copper
Description: as §1, §2

[5] = Example E: Aquifer Simulation Vessel (ASV), chromated copper arsenate, arsenic; settings: for Arsenic concentration in aqueous phase: initial 25.7
Description: (§3) A tube 6 foot long and 6 inches in diameter was packed with soil. These tubes simulate the flow in an aquifer below ground and are referred to as Aquifer Simulation Vessels (ASV). The ASV has sample ports along the bottom at every 6-inch interval to allow sampling as water flows through the tube. Contaminated water is allowed to flow through the tube. As the water flows through the tube, the water within the space pockets of the soil is tested and when the soil with the tube is fully contaminated the flow was stopped. The soil pockets (pores) were full of contaminants from the water. At that point either ferrous cysteinate or sorbitol hexacysteinate was injected just ahead of the first port with no flow in the system.
(§4) A separate tube was used for each of the two materials tested.
(§5) Initially the soil pockets (pores) were filled with this solution as described. Either ferrous cysteinate or sorbitol hexacysteinate was injected into the soil containing tube. The concentration of contaminants at each sample port was measured over a 30 day period. The system was then flushed with fresh water to determine if the removed metals are “redistributed” or “redissolved” in the water (i.e. so called “rebound”). This measure determined the ability of the compounds to permanently remove the contaminants.

[6] = Example E: Aquifer Simulation Vessel (ASV), chromated copper arsenate, chromium; settings: for Chromium concentration in aqueous phase / Cr concentration: initial 15
Description: as §3, §4, §5

[7] = Example E: Aquifer Simulation Vessel (ASV), chromated copper arsenate, copper; settings: for Copper concentration in aqueous phase: initial 4.2
Description: as §3, §4, §5

ferrous cysteinate [FeC]
time in which the concentration of As was reduced by half ([1]; 10.02 grams in 150 ml of 32 ppm As): less than 45 hours
concentration of As after treatment ([1]; from 32 ppm, in less than 45 hours): less than 15 ppm
remediation of arsenic in combined solution [2]: remediated
remediation of chromium in combined solution [3]: remediated
remediation of copper in combined solution [4]: remediated
remediation of As in ASV [5]: effective remediation
Arsenic concentration in aqueous phase ([5]; Port 1, Day 5): 25.8 mg/L
Arsenic concentration in aqueous phase ([5]; Port 1, Day 8): 10.9 mg/L
Arsenic concentration in aqueous phase ([5]; Port 1, Day 13): 6.8 mg/L
Arsenic concentration in aqueous phase ([5]; Port 1, Day 16): 3.6 mg/L
Arsenic concentration in aqueous phase ([5]; Port 1, Day 20): 3.3 mg/L
Arsenic concentration in aqueous phase ([5]; Port 1, Day 22): 1.1 mg/L
Arsenic concentration in aqueous phase ([5]; Port 1, Day 27): 0.6 mg/L
Arsenic concentration in aqueous phase ([5]; Port 5, Day 5): 23.1 mg/L
Arsenic concentration in aqueous phase ([5]; Port 5, Day 8): 9.8 mg/L
Arsenic concentration in aqueous phase ([5]; Port 5, Day 13): 6.8 mg/L
Arsenic concentration in aqueous phase ([5]; Port 5, Day 16): 3.5 mg/L
Arsenic concentration in aqueous phase ([5]; Port 5, Day 20): 3.0 mg/L
Arsenic concentration in aqueous phase ([5]; Port 5, Day 22): 0.9 mg/L
Arsenic concentration in aqueous phase ([5]; Port 5, Day 27): 0.5 mg/L
Arsenic concentration in aqueous phase ([5]; Port 10, Day 5): 23.9 mg/L
Arsenic concentration in aqueous phase ([5]; Port 10, Day 8): 7.7 mg/L
Arsenic concentration in aqueous phase ([5]; Port 10, Day 13): 5.4 mg/L
Arsenic concentration in aqueous phase ([5]; Port 10, Day 16): 2.8 mg/L
Arsenic concentration in aqueous phase ([5]; Port 10, Day 20): 2.9 mg/L
Arsenic concentration in aqueous phase ([5]; Port 10, Day 22): 0.8 mg/L
Arsenic concentration in aqueous phase ([5]; Port 10, Day 27): 0.5 mg/L
remediation of Cr in ASV [6]: effective remediation
Chromium concentration in aqueous phase ([6]; Port 1, Day 8): 5.8 mg/L
Chromium concentration in aqueous phase ([6]; Port 1, Day 13): 3.4 mg/L
Chromium concentration in aqueous phase ([6]; Port 1, Day 16): 1.4 mg/L
Chromium concentration in aqueous phase ([6]; Port 1, Day 20): 0.7 mg/L
Chromium concentration in aqueous phase ([6]; Port 1, Day 22): 1.1 mg/L
Chromium concentration in aqueous phase ([6]; Port 1, Day 27): 1.0 mg/L
Chromium concentration in aqueous phase ([6]; Port 5, Day 8): 4.8 mg/L
Chromium concentration in aqueous phase ([6]; Port 5, Day 13): 1.3 mg/L
Chromium concentration in aqueous phase ([6]; Port 5, Day 16): 0.9 mg/L
Chromium concentration in aqueous phase ([6]; Port 5, Day 20): 0.6 mg/L
Chromium concentration in aqueous phase ([6]; Port 5, Day 22): 1.0 mg/L
Chromium concentration in aqueous phase ([6]; Port 5, Day 27): 0.9 mg/L
Chromium concentration in aqueous phase ([6]; Port 10, Day 8): 5.2 mg/L
Chromium concentration in aqueous phase ([6]; Port 10, Day 13): 0.8 mg/L
Chromium concentration in aqueous phase ([6]; Port 10, Day 16): 0.6 mg/L
Chromium concentration in aqueous phase ([6]; Port 10, Day 20): 0.5 mg/L
Chromium concentration in aqueous phase ([6]; Port 10, Day 22): 0.9 mg/L
Chromium concentration in aqueous phase ([6]; Port 10, Day 27): 0.7 mg/L
Cr concentration ([6]; port 1, day 30): 0.7 mg/L
Cr concentration ([6]; port 5, day 30): 0.4 mg/L
Cr concentration ([6]; port 10, day 30): 0.4 mg/L
remediation of Cu in ASV [7]: effective remediation
Copper concentration in aqueous phase ([7]; Port 1, Day 5): 0.3 mg/L
Copper concentration in aqueous phase ([7]; Port 1, Day 8): 0.2 mg/L
Copper concentration in aqueous phase ([7]; Port 1, Day 13): 0.1 mg/L
Copper concentration in aqueous phase ([7]; Port 1, Day 16): 0.1 mg/L
Copper concentration in aqueous phase ([7]; Port 1, Day 20): 0.0 mg/L
Copper concentration in aqueous phase ([7]; Port 1, Day 22): 0.1 mg/L
Copper concentration in aqueous phase ([7]; Port 1, Day 27): 0.0 mg/L
Copper concentration in aqueous phase ([7]; Port 5, Day 5): 0.3 mg/L
Copper concentration in aqueous phase ([7]; Port 5, Day 8): 0.2 mg/L
Copper concentration in aqueous phase ([7]; Port 5, Day 13): 0.1 mg/L
Copper concentration in aqueous phase ([7]; Port 5, Day 16): 0.0 mg/L
Copper concentration in aqueous phase ([7]; Port 5, Day 20): 0.0 mg/L
Copper concentration in aqueous phase ([7]; Port 5, Day 22): 0.0 mg/L
Copper concentration in aqueous phase ([7]; Port 5, Day 27): 0.0 mg/L
Copper concentration in aqueous phase ([7]; Port 10, Day 5): 0.1 mg/L
Copper concentration in aqueous phase ([7]; Port 10, Day 8): 0.1 mg/L
Copper concentration in aqueous phase ([7]; Port 10, Day 13): 0.0 mg/L
Copper concentration in aqueous phase ([7]; Port 10, Day 16): 0.0 mg/L
Copper concentration in aqueous phase ([7]; Port 10, Day 20): 0.0 mg/L
Copper concentration in aqueous phase ([7]; Port 10, Day 22): 0.0 mg/L
Copper concentration in aqueous phase ([7]; Port 10, Day 27): 0.0 mg/L

sorbitol tricysteinate
remediation of arsenic in combined solution [2]: remediated
remediation of chromium in combined solution [3]: remediated
remediation of copper in combined solution [4]: remediated
